18 molecules from patent US8816085B2 (Takeda GmbH, priority 2009, dated 2014) can be followed below.

For assay [1], the target named is T1, PDE5A1 (human PDE5 from platelets) (Homo sapiens, UniProt O76074).
T1 construct: from tissue; host or cells: platelets from fresh blood of human donors (10,000 g supernatant of sonified platelets)
Put plainly: Inhibition of type 5 phosphodiesterase (PDE5) activity, modified SPA test. The assay is classed as biochemical. The note with it: PDE5-containing human platelet lysate, 0.5 μM cGMP, value classes, read-out: PDE5A1 inhibitory values [measured as −logIC50 (mol/l)] (converted). A digest of the protocol: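 Enzyme source: human platelet lysate (10,000 g supernatant), with 1 μM motapizone and 10 nM PDE2 inhibitor present. SPA format in 20 mM Tris pH 7.4, 5 mM Mg2+, 0.5 μM cGMP with [3H]cGMP tracer; 5 min preincubation at 37 °C, 15 min reaction, stopped with IBMX-containing beads. IC50 by non-linear regression.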

The subject of assay [2] is anaesthetised male Sprague Dawley rats. Kind of assay: Phenylephrine-induced acute arterial hypertension and SNP-induced blood pressure response (MAP). The assay is classed as in vivo. The settings on record: 3 mg/kg orally 90 min prior to SNP (30 μg/kg i.v.); continuous i.v. PE-infusion; vs. placebo. The text has this:
Nitric oxide regulates smooth muscle tone by elevation of cGMP via activation of guanylate cyclase and subsequent activation of cyclic GMP-dependent protein kinase. The amplitude and duration of the cGMP signal in smooth muscle is largely regulated by cGMP-specific cyclic nucleotide phosphodiesterase 5 (PDE5). […] The aim of the study was to evaluate the effects of the selective PDE5 inhibitors described in this present subject matter on phenylephrine-induced acute arterial hypertension and sodium-nitroprusside (SNP) induced blood pressure response in anaesthetised male Sprague Dawley rats.
The test compound (suspended in a 4% w/v aqueous methylcellulose solution 3 mg/kg) or placebo (i.e. 4% aqueous methylcellulose solution) is administered orally to conscious Sprague Dawley rats 90 min prior to SNP administration. 40 min later, rats are anaesthetised by intramuscular administration of 80 mg/kg ketamine-HCl+4 mg/kg xylazin-HCl and ventilated with ˜1.5% isoflurane in a mixture of ambient air and 40% oxygen. Catheters for i.v. PE- and SNP-administration and recording of mean arterial blood pressure (MAP) are inserted. […] To assess the effect of test compounds (PDE5 inhibitory activity) in comparison to placebo, MAP response is analysed. […]

In the case of `CC(=O)N1CCC(NC(=O)c2c(C)[nH]c3c(-c4c(OCC5CC5)ccc5c4OCO5)ccnc23)CC1` [Example E01, N-(1-Acetylpiperidin-4-yl)-7-[5-(cyclopropylmethoxy)-1,3-benzodioxol-4-yl]-2-methyl-1H-pyrrolo[3,2-b]pyridine-3-carboxamide], the IC50 in assay [1] is under 1 nM. In addition, the “efficacy (% change vs. control), corr. AUCMAP 0-180 s following SNP-administration” value in assay [2] is given as about −27%.

With `Cc1[nH]c2c(-c3c(OCC4CC4)ccc4c3OCO4)ccnc2c1C(=O)NC1CCN(C(=O)[C@H](C)O)CC1` [Example F02, 7-[5-(Cyclopropylmethoxy)-1,3-benzodioxol-4-yl]-N-{1-[(2S)-2-hydroxypropanoyl]piperidin-4-yl}-2-methyl-1H-pyrrolo[3,2-b]pyridine-3-carboxamide], the IC50 in assay [1] is under 1 nM. Also, in assay [2], the “efficacy (% change vs. control), corr. AUCMAP 0-180 s following SNP-administration” value is about −27%.

For `Cc1ccc(OCC2CC2)c(-c2ccnc3c(C(=O)NC4CCN(C(=O)[C@H](C)O)CC4)c(C)[nH]c23)c1` [Example F35, 7-[2-(cyclopropylmethoxy)-5-methylphenyl]-N-{1-[abs.(2S)-2-hydroxypropanoyl]piperidin-4-yl}-2-methyl-1H-pyrrolo[3,2-b]pyridine-3-carboxamide], the IC50 in assay [1] is 1 to 10 nM.

On to `Cc1ccc(OCC2CC2)c(-c2ccnc3c(C(=O)N[C@H]4CC[C@H](NC(=O)CO)CC4)c(C)[nH]c23)c1` [Example F36, 7-[2-(Cyclopropylmethoxy)-5-methylphenyl]-N-{trans-4-[(hydroxyacetyl)amino]cyclohexyl}-2-methyl-1H-pyrrolo[3,2-b]pyridine-3-carboxamide], for which the IC50 in assay [1] was 1 to 10 nM.

For `Cc1ccc(OCC2CC2)c(-c2ccnc3c(C(=O)N[C@H]4CC[C@H](NC(=O)[C@H](C)O)CC4)c(C)[nH]c23)c1` [Example F37, 7-[2-(Cyclopropylmethoxy)-5-methylphenyl]-N-(trans-4-{[(2S)-2-hydroxypropanoyl]amino}cyclohexyl)-2-methyl-1H-pyrrolo[3,2-b]pyridine-3-carboxamide], in assay [1], the IC50 is 1 to 10 nM.

Turning to `Cc1ccc(OCC2CC2)c(-c2ccnc3c(C(=O)N[C@H]4CC[C@@H](NC(=O)CO)CC4)c(C)[nH]c23)c1` [Example F38, 7-[2-(Cyclopropylmethoxy)-5-methylphenyl]-N-{cis-4-[(hydroxyacetyl)amino]cyclohexyl}-2-methyl-1H-pyrrolo[3,2-b]pyridine-3-carboxamide], the IC50 in assay [1] was 1 to 10 nM.

As for `Cc1ccc(OCC2CC2)c(-c2ccnc3c(C(=O)N[C@H]4CC[C@@H](NC(=O)[C@H](C)O)CC4)c(C)[nH]c23)c1` [Example F39, 7-[2-(Cyclopropylmethoxy)-5-methylphenyl]-N-(cis-4-{[(2S)-2-hydroxypropanoyl]amino}cyclohexyl)-2-methyl-1H-pyrrolo[3,2-b]pyridine-3-carboxamide], the IC50 in assay [1] was 1 to 10 nM.

Take `COc1cc(-c2ccnc3c(C(=O)NC4CCN(C(=O)CO)CC4)c(C)[nH]c23)c(OCC2CC2)cc1F` [Example F40, 7-[2-(Cyclopropylmethoxy)-4-fluoro-5-methoxyphenyl]-N-[1-(hydroxyacetyl)piperidin-4-yl]-2-methyl-1H-pyrrolo[3,2-b]pyridine-3-carboxamide]: the IC50 in assay [1] is under 1 nM.

For the molecule `COc1cc(-c2ccnc3c(C(=O)NC4CCN(C(=O)[C@H](C)O)CC4)c(C)[nH]c23)c(OCC2CC2)cc1F` [Example F41, 7-[2-(Cyclopropylmethoxy)-4-fluoro-5-methoxyphenyl]-N-{1-[(2S)-2-hydroxypropanoyl]piperidin-4-yl}-2-methyl-1H-pyrrolo[3,2-b]pyridine-3-carboxamide], the IC50 in assay [1] is under 1 nM.

For the molecule `COc1cc(-c2ccnc3c(C(=O)N[C@H]4CC[C@H](NC(=O)CO)CC4)c(C)[nH]c23)c(OCC2CC2)cc1F` [Example F42, 7-[2-(Cyclopropylmethoxy)-4-fluoro-5-methoxyphenyl]-N-{trans-4-[(hydroxyacetyl)amino]cyclohexyl}-2-methyl-1H-pyrrolo[3,2-b]pyridine-3-carboxamide], the IC50 in assay [1] was under 1 nM.

For the molecule `COc1cc(-c2ccnc3c(C(=O)N[C@H]4CC[C@H](NC(=O)[C@H](C)O)CC4)c(C)[nH]c23)c(OCC2CC2)cc1F` [Example F43, 7-[2-(Cyclopropylmethoxy)-4-fluoro-5-methoxyphenyl]-N-(trans-4-{[(2S)-2-hydroxypropanoyl]amino}cyclohexyl)-2-methyl-1H-pyrrolo[3,2-b]pyridine-3-carboxamide], in assay [1], the IC50 was under 1 nM.

Consider `COc1cc(-c2ccnc3c(C(=O)N[C@H]4CC[C@@H](NC(=O)CO)CC4)c(C)[nH]c23)c(OCC2CC2)cc1F` [Example F44, 7-[2-(Cyclopropylmethoxy)-4-fluoro-5-methoxyphenyl]-N-{cis-4-[(hydroxyacetyl)amino]cyclohexyl}-2-methyl-1H-pyrrolo[3,2-b]pyridine-3-carboxamide], for which the IC50 in assay [1] is under 1 nM.

Regarding `COc1cc(-c2ccnc3c(C(=O)N[C@H]4CC[C@@H](NC(=O)[C@H](C)O)CC4)c(C)[nH]c23)c(OCC2CC2)cc1F` [Example F45, 7-[2-(Cyclopropylmethoxy)-4-fluoro-5-methoxyphenyl]-N-(cis-4-{[abs.(2S)-2-hydroxypropanoyl]amino}cyclohexyl)-2-methyl-1H-pyrrolo[3,2-b]pyridine-3-carboxamide], the IC50 in assay [1] was under 1 nM.

As for `COc1cc(OCC2CC2)c(-c2ccnc3c(C(=O)NC4CCN(C(=O)CO)CC4)c(C)[nH]c23)cc1F` [Example F50, 7-[2-(Cyclopropylmethoxy)-5-fluoro-4-methoxyphenyl]-N-(1-glycoloylpiperidin-4-yl)-2-methyl-1H-pyrrolo[3,2-b]pyridine-3-carboxamide], the IC50 in assay [1] was under 1 nM.

On to `COc1cc(OCC2CC2)c(-c2ccnc3c(C(=O)NC4CCN(C(=O)[C@H](C)O)CC4)c(C)[nH]c23)cc1F` [Example F51, 7-[2-(Cyclopropylmethoxy)-5-fluoro-4-methoxyphenyl]-N-{1-[(2S)-2-hydroxypropanoyl]piperidin-4-yl}-2-methyl-1H-pyrrolo[3,2-b]pyridine-3-carboxamide], for which the IC50 in assay [1] is under 1 nM.

Regarding `COc1cc(OCC2CC2)c(-c2ccnc3c(C(=O)N[C@H]4CC[C@H](NC(=O)CO)CC4)c(C)[nH]c23)cc1F` [Example F52, 7-[2-(Cyclopropylmethoxy)-5-fluoro-4-methoxyphenyl]-N-[trans-4-(glycoloylamino)cyclohexyl]-2-methyl-1H-pyrrolo[3,2-b]pyridine-3-carboxamide], in assay [1], the IC50 is under 1 nM.

For the molecule `COc1cc(OCC2CC2)c(-c2ccnc3c(C(=O)N[C@H]4CC[C@H](NC(=O)[C@H](C)O)CC4)c(C)[nH]c23)cc1F` [Example F53, 7-[2-(Cyclopropylmethoxy)-5-fluoro-4-methoxyphenyl]-N-(trans-4-{[(2S)-2-hydroxypropanoyl]amino}cyclohexyl)-2-methyl-1H-pyrrolo[3,2-b]pyridine-3-carboxamide], the IC50 in assay [1] is under 1 nM.

As for `COc1cc(OCC2CC2)c(-c2ccnc3c(C(=O)N[C@H]4CC[C@@H](NC(=O)CO)CC4)c(C)[nH]c23)cc1F` [Example F54, 7-[2-(Cyclopropylmethoxy)-5-fluoro-4-methoxyphenyl]-N-[cis-4-(glycoloylamino)cyclohexyl]-2-methyl-1H-pyrrolo[3,2-b]pyridine-3-carboxamide], the IC50 in assay [1] is under 1 nM.
